In PubChem BioAssay (NCI):
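These data come from cells grown in 96-well plates and exposed to compound for 48 hours at five concentrations. TGI is the concentration that stops growth completely.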

Columns and labels:
Assay in all cases: NCI anticancer screen, dose series, 48 h
NCI-H522 lung = test system: NCI-H522 lung
HT29 colon = test system: HT29 colon
EKVX NSCLC = test system: EKVX NSCLC
SR leukemia = test system: SR leukemia
OVCAR-4 ovarian = test system: OVCAR-4 ovarian
OVCAR-8 ovarian = test system: OVCAR-8 ovarian
OVCAR-5 ovarian = test system: OVCAR-5 ovarian

Compound	TGI (NCI-H522 lung) [µM]	TGI (HT29 colon) [µM]	TGI (EKVX NSCLC) [µM]	TGI (SR leukemia) [µM]	TGI (OVCAR-4 ovarian) [µM]	TGI (OVCAR-8 ovarian) [µM]	TGI (OVCAR-5 ovarian) [µM]
CCOC(=O)c1cccc([N+](=O)[O-])c1N	> 100	> 100	> 100	> 100	> 100	> 100	> 100
CC1(C)CN=C(Nc2ccc(Cl)cc2)S1	> 100	> 100	> 100	> 100	> 100	> 100	> 100
O=C(N/N=C1/C(=O)c2c3ccccc3cc3cccc1c23)c1cccc(Cl)c1		> 100		> 100	> 100	> 100	> 100
C#CCOC(=O)C(N)CSSCC(N)C(=O)O (centres undefined)	> 100		> 100	> 100	> 100	> 100	> 100
C=C1CC(Cn2cc(C)c(=O)[nH]c2=O)(c2ccc(-c3ccccc3)cc2)OC1=O (centres undefined)	3.59	2.42	22.1	12.8	6.76	4.98	23.3
CCOC(=O)c1cc2c([nH]1)C(=O)CC1=C2CCN1Cc1ccccc1	38.5	30.8	37.4	33.4	26.8	46.6	
Nc1nc(NNc2ccc(Cl)c(Cl)c2)cc(=O)[nH]1		> 100	> 100	> 100	> 100	> 100	> 100
COc1cc2c(cc1OC)C1(c3ccccc3)CN(C2)Cc2cc(OC)c(OC)cc21	> 100	> 100	> 100	32.2	77.6	> 100	> 100
CC1OC(OC2C(O)COC(OC3C(C)OC(OC4C(OC(=O)[C@]56CCC(C)(C)C[C@@H]5C5=CCC7[C@@]8(C)C[C@H](O)[C@H](OC9OC(CO)C(O)C(OC%10OC(CO)C(O)C(O)C%10O)C9O)[C@@](C)(CO)[C@@H]8CC[C@@]7(C)[C@]5(C)CC6)OCC(O)C4O)C(O)C3OC3OCC(O)C(O)C3O)C2O)C(O)C(O)C1O (some centres undefined)	26.4	33.9	15.6	27	29.8	29	22.8
CC1=CCC[C@@H]2[C@@](C)(Cc3cc(O)ccc3O)[C@H](C)CC[C@@]12C	14.1	42.7	20.3	12.6	25.7	16.7	28.3
Cc1ccc(CS(=O)(=O)C/N=c2\sc3ccccc3nc2/C=C(\O)c2ccc(Cl)cc2)cc1	> 10	> 10		> 10	> 10	> 10	> 10
Cc1ccc2c(=O)c(-c3nnc(N)s3)c[nH]c2n1	> 100	> 100	> 100		> 100	> 100	> 100
O=P1(Oc2ccc(Cl)cc2)OCCS1 (centres undefined)	> 100	> 100	> 100	> 100		> 100	> 100
COc1ccc(N[C@H](CS(=O)c2ccc(C)cc2)C(F)(F)C(F)(F)F)cc1 (some centres undefined)	> 100	> 100	> 100		> 100	> 100	> 100
